Experimental data: paper PMC5653977 (EMBO Molecular Medicine, 2017)
Counter-ions that a name gives are not always drawn.

Tested on: NRG1-ERBB4 signaling
Test: Nrg1-ERBB4-PIK3R1 split TEV co-culture compound screen of the NIH Clinical Collection
Type: cell-based, human
[1] = compound screen of the NIH Clinical Collection, sheet raw data NCC-003, compounds ranked by Z-score
[2] = NIH Clinical Collection NCC-003 raw data, compounds ranked by Z-score, 'flagged' given instead of a Z-score
[3] = compounds at 10 μM, 24 h, PC12 split TEV assay cells co-cultured with Nrg1-expressing PC12 cells, analysed with cellHTS2

| Structure (SMILES) | Z-SCORE [1] | Z-SCORE [3] | other results |
| --- | --- | --- | --- |
| O=C(O)COCCN1CCN([C@H](c2ccccc2)c2ccc(Cl)cc2)CC1 [LEVOCETIRIZINE] | 0.15 |  |  |
| C[C@H]1COc2c(N3CCN(C)CC3)c(F)cc3c(=O)c(C(=O)O)cn1c23 [LEVOFLOXACIN] | -0.28 |  |  |
| C#C[C@]1(O)CC[C@H]2[C@@H]3CCC4=CC(=O)CC[C@@H]4[C@H]3CC[C@@]21CC [LEVONORGESTREL] | -1.05 |  |  |
| CCN1CCC[C@H]1CNC(=O)c1cc(S(N)(=O)=O)ccc1OC [LEVOSULPIRIDE] | -0.53 |  |  |
| CCN(CC)CC(=O)Nc1c(C)cccc1C [LIDOCAINE] | 1.02 |  |  |
| CC(=O)NC[C@H]1CN(c2ccc(N3CCOCC3)c(F)c2)C(=O)O1 [LINEZOLID] |  |  | Z-SCORE [2]: -1.43 |
| CN1[C@@H](CC(=O)c2ccccc2)CCC[C@H]1C[C@H](O)c1ccccc1 [LOBELINE HYDROCHLORIDE] | 0.14 |  |  |
| CN(CCCN1c2ccccc2CCc2ccccc21)CC(=O)c1ccc(Cl)cc1 [LOFEPRAMINE] | -0.53 |  |  |
| CC(Oc1c(Cl)cccc1Cl)C1=NCCN1 (stereo not drawn) [LOFEXIDINE HCl] | -0.17 |  |  |
| COc1ccc(CN2CCN(C(c3ccc(F)cc3)c3ccc(F)cc3)CC2)c(OC)c1OC.Cl.Cl [LOMERIZINE DiHCl] |  |  | Z-SCORE [2]: -1.48 |
| CC(=O)CCCCn1cnc2c1c(=O)n(C)c(=O)n2C [LOMIFYLLINE] | -0.7 |  |  |
| CCOC(=O)N1CCC(=C2c3ccc(Cl)cc3CCc3cccnc32)CC1 [LORATADINE] | 0.21 |  |  |
| CCCCc1nc(Cl)c(CO)n1Cc1ccc(-c2ccccc2-c2nn[nH]n2)cc1 [LOSARTAN Potassium] | -0.12 |  |  |
| CCOC(=O)O[C@]1(C(=O)OCCl)CC[C@H]2[C@@H]3CCC4=CC(=O)C=C[C@]4(C)[C@H]3[C@@H](O)C[C@@]21C [LOTEPREDNOL ETABONATE] | 0.32 |  |  |
| CC(C(=O)O)c1ccc(CC2CCCC2=O)cc1 (stereo not drawn) [LOXOPROFEN SODIUM] | 0.32 |  |  |
| CCCc1c(OCCCCc2nnn[nH]2)ccc(C(C)=O)c1O [LY 171883] | 2.04 |  |  |
| CCC[C@@H]1C[C@@H](C(=O)N[C@@H]([C@H]2O[C@H](SC)[C@H](O)[C@@H](O)[C@H]2O)[C@@H](C)O)N(C)C1 [Lincomycin hydrochloride, reference compound] |  | 0.53 |  |
| O=C1Nc2ccc(Cl)cc2C(c2ccccc2Cl)=NC1O (stereo not drawn) [Lorazepam] | 0.53 |  |  |
| CC[C@H](C)C(=O)O[C@H]1C[C@@H](C)C=C2C=C[C@H](C)[C@H](CC[C@@H]3C[C@@H](O)CC(=O)O3)[C@H]21 [Lovastatin, reference compound] |  | flagged |  |
| CN1CCN(C2=Nc3ccccc3Oc3ccc(Cl)cc32)CC1 [Loxapine succinate] |  |  | Z-SCORE [2]: -1.14 |
| CC(=O)O[C@]1(C(C)=O)CC[C@H]2[C@@H]3C=C(C)C4=CC(=O)CC[C@]4(C)[C@H]3CC[C@@]21C [MEGESTROL ACETATE] |  |  | Z-SCORE [2]: -1.44 |
| C[N+]1(C)CCCC(OC(=O)C(O)(c2ccccc2)c2ccccc2)C1 (stereo not drawn) [MEPENZOLATE BROMIDE, reference compound] |  | -0.58 |  |
| COc1cc(C)nc(-n2nc(C)cc2OC)n1 [MEPIRIZOLE] | 0.59 |  |  |
| Cc1cccc(C)c1NC(=O)C1CCCCN1C (stereo not drawn) [MEPIVACAINE HYDROCHLORIDE] | -0.39 |  |  |
| C[C@@H](O)[C@H]1C(=O)N2C(C(=O)O)=C(S[C@@H]3CN[C@H](C(=O)N(C)C)C3)[C@H](C)[C@H]12 [MEROPENEM] | -0.25 |  |  |

| Structure (SMILES) | Z-SCORE [1] | Z-SCORE [3] | other results |
| --- | --- | --- | --- |
| C#C[C@]1(O)CC[C@H]2[C@@H]3CCc4cc(OC)ccc4[C@H]3CC[C@@]21C [MESTRANOL] | -0.21 |  |  |
| C[C@]12CC[C@H](O)CC1=CC[C@@H]1[C@@H]2CC[C@@]2(C)[C@H]1CC[C@]2(C)O [METHYLANDROSTENEDIOL] | 0.32 |  |  |
| C[C@H]1C[C@@H]2[C@H]([C@@H](O)C[C@@]3(C)[C@H]2CC[C@]3(O)C(=O)CO)[C@@]2(C)C=CC(=O)C=C12 [METHYLPREDNISOLONE, reference compound] |  | 0.65 |  |
| Cc1ncc([N+](=O)[O-])n1CCO [METRONIDAZOLE] | -0.28 |  |  |
| CC(C)(C(=O)c1cccnc1)c1cccnc1 [METYRAPONE, reference compound] |  | 0.48 |  |
| Clc1ccc(COC(Cn2ccnc2)c2ccc(Cl)cc2Cl)c(Cl)c1 (stereo not drawn) [MICONAZOLE NITRATE, reference compound] |  | -0.69 |  |
| Cc1ncc2n1-c1ccc(Cl)cc1C(c1ccccc1F)=NC2 [MIDAZOLAM HCl] | 0.91 |  |  |
| CC#C[C@]1(O)CC[C@H]2[C@@H]3CCC4=CC(=O)CCC4=C3[C@@H](c3ccc(N(C)C)cc3)C[C@@]21C [MIFEPRISTONE] | 0.02 |  |  |
| OCCN1C[C@H](O)[C@@H](O)[C@H](O)[C@H]1CO [MIGLITOL] | -0.33 |  |  |
| Cc1[nH]c(=O)c(C#N)cc1-c1ccncc1 [MILRINONE] | -0.04 |  |  |
| CN(C)c1ccc(O)c2c1C[C@H]1C[C@H]3[C@H](N(C)C)C(O)=C(C(N)=O)C(=O)[C@@]3(O)C(O)=C1C2=O [MINOCYCLINE HYDROCHLORIDE, reference compound] |  | -0.02 |  |
| O=C1c2c(O)ccc(O)c2C(=O)c2c(NCCNCCO)ccc(NCCNCCO)c21 [MITOXANTRONE, reference compound] |  | flagged |  |
| CC(C)(O)c1ccccc1CC[C@@H](SCC1(CC(=O)[O-])CC1)c1cccc(/C=C/c2ccc3ccc(Cl)cc3n2)c1.[Na+] [MONTELUKAST Na] |  |  | Z-SCORE [2]: -1.21 |
| CCOc1cc(N)c(Cl)cc1C(=O)NCC1CN(Cc2ccc(F)cc2)CCO1 (stereo not drawn) [MOSAPRIDE CITRATE] | 0.73 |  |  |
| COc1c(N2C[C@@H]3CCCN[C@@H]3C2)c(F)cc2c(=O)c(C(=O)O)cn(C3CC3)c12 [MOXIFLOXACIN HCl] | -0.35 |  |  |
| COc1nc(C)nc(Cl)c1NC1=NCCN1.Cl [MOXONIDINE HCl] | 0.68 |  |  |
| CNCCCC12CCC(c3ccccc31)c1ccccc12.Cl [Maprotilline HCl] | 1.18 |  |  |
| CCN(CC)CCNC(=O)c1cc(Cl)c(N)cc1OC.Cl [Maxolon, reference compound] |  | -1.12 |  |
| COC(=O)Nc1nc2ccc(C(=O)c3ccccc3)cc2[nH]1 [Mebendazole, reference compound] |  | -4.63 |  |
| Cc1ccc(Cl)c(Nc2ccccc2C(=O)O)c1Cl [Meclomen, reference compound] |  | -0.25 |  |
| CC(=O)O[C@]1(C(C)=O)CC[C@H]2[C@@H]3C[C@H](C)C4=CC(=O)CC[C@]4(C)[C@H]3CC[C@@]21C [Medroxyprogesterone 17-acetate, reference compound] |  | -1.59 |  |
| CC(=O)[C@H]1CC[C@H]2[C@@H]3C[C@H](C)C4=CC(=O)CC[C@]4(C)[C@H]3[C@@H](O)C[C@]12C [Medrysone, reference compound] |  | -1.74 |  |
| Cc1cccc(Nc2ccccc2C(=O)O)c1C [Mefenamic Acid, reference compound] |  | 0.34 |  |
| OC(c1cc(C(F)(F)F)nc2c(C(F)(F)F)cccc12)C1CCCCN1 (stereo not drawn) [Mefloquine hydrochloride, reference compound] |  | flagged |  |
| Cc1cnc(NC(=O)C2=C(O)c3ccccc3S(=O)(=O)N2C)s1 [Meloxicam, reference compound] |  | 0.24 |  |

| Structure (SMILES) | Z-SCORE [1] | Z-SCORE [3] | other results |
| --- | --- | --- | --- |
| CC12CC3CC(C)(C1)CC(N)(C3)C2 [Memantine hydrochloride, reference compound] |  | 0.5 | Z-SCORE [2]: -1.15 |
| S=c1[nH]cnc2nc[nH]c12 [Mercaptopurine, reference compound] |  | 0 |  |
| O=S(=O)(O)CCS [Mesna, reference compound] |  | 0.04 |  |
| CN1CCCCC1CCN1c2ccccc2Sc2ccc([S+](C)[O-])cc21 (stereo not drawn) [Mesoridazine] | -0.53 |  |  |
| C[C@]12CCC(=O)C[C@@H]1CC[C@@H]1[C@@H]2CC[C@@]2(C)[C@H]1CC[C@]2(C)O [Mestanolone] | 1.19 |  |  |
| CN(C)C(=O)Oc1ccc[n+](C)c1 [Mestinon, reference compound] |  | -0.37 |  |
| CC(C)NCC(O)c1cc(O)cc(O)c1 (stereo not drawn) [Metaproterenol, reference compound] |  | -0.11 |  |
| CC(=O)/N=c1/sc(S(N)(=O)=O)nn1C [Methazolamide, reference compound] |  | 0.38 |  |
| Cn1cc[nH]c1=S [Methimazole, reference compound] |  | 3 |  |
| COc1ccccc1OCC(O)COC(N)=O (stereo not drawn) [Methocarbamol, reference compound] |  | 0.65 |  |
| COc1c2occc2cc2ccc(=O)oc12 [Methoxsalen, reference compound] |  | 0.16 |  |
| C[C@](N)(Cc1ccc(O)c(O)c1)C(=O)O [Methyldopa, reference compound] |  | 0.63 |  |
| C[C@]12CCC(=O)C=C1CC[C@@H]1[C@@H]2CC[C@@]2(C)[C@H]1CC[C@]2(C)O [Methyltestosterone] | -0.41 |  |  |
| CC1CCN(CCCC(=O)c2ccc(F)cc2)CC1 [Metylperon] | 0.36 |  |  |
| Cc1cccc(C)c1OCC(C)N (stereo not drawn) [Mexitil, reference compound] |  | 1.1 |  |
| Cc1onc(-c2ccccc2)c1C(=O)N[C@@H]1C(=O)N2[C@@H]1SC(C)(C)[C@@H]2C(=O)[O-].O.[Na+] [Micropenin, reference compound] |  | 0.25 |  |
| CCN(CC)C(=O)C1(c2ccccc2)CC1CN (stereo not drawn) [Milnacipran] | 0.97 |  |  |
| Nc1cc(N2CCCCC2)nc(N)[n+]1[O-] [Minoxidil, reference compound] |  | 0.25 |  |
| CC(=O)OCC[N+](C)(C)C [Miochol, reference compound] |  | 0.45 |  |
| CCc1c(C)[nH]c2c1C(=O)C(CN1CCOCC1)CC2 (stereo not drawn) [Moban, reference compound] |  | -0.44 |  |
| NC(=O)C[S+]([O-])C(c1ccccc1)c1ccccc1 (stereo not drawn) [Modafinil] | 0.43 |  |  |
| C/C(=C\C(=O)OCCCCCCCCC(=O)O)C[C@@H]1OC[C@H](C[C@@H]2O[C@H]2[C@@H](C)[C@H](C)O)[C@@H](O)[C@H]1O [Mupirocin, reference compound] |  | 0.71 |  |
| COc1ccc2cc(CCC(C)=O)ccc2c1 [NABUMETONE, reference compound] |  | 1.61 |  |
| CC(C)(C)NCC(O)COc1cccc2c1CC(O)C(O)C2 (stereo not drawn) [NADOLOL, reference compound] |  | 0.1 |  |
